Reference: patent US5861375A, “Antiprotozoal cyclic tetrapeptides” (Merck & Co., Inc., priority 1997, dated 1999)

System: Plasmodium falciparum
Assay: Radioactive antimalarial assay (parasite specific uptake of radiolabel)
Assay type: cell-based
Settings: P. falciparum
Method: Compound of formula Ia was evaluated against Eimeria tenella, Toxoplasma gondii, and Plasmodium falciparum according to methods reported in the literature.
The antimalarial activity was determined in a radioactive assay following the general protocol described in Desjardins et al, "Quantitative Assessment of Antimalarial Activity In Vitro by a Semiautomated Microdilution Technique" Antimicrobial Agents and Chemotherapy. 1979, 16:710-718.

CCC(=O)CCCCC[C@@H]1NC(=O)[C@H]2CCCCN2C(=O)[C@H]([C@@H](C)CC)NC(=O)[C@H](Cc2cn(OC)c3ccccc23)NC1=O [Ia]
IC50 (the concentration of drug which inhibits the parasite specific uptake of radiolabel by 50%): 0.054 µg/mL
